Target: T1, MGFR portion of the MUC1 receptor (His-PSMGFR) and ligand(s) in T47D lysate (Homo sapiens, UniProt P15941, R1131P)
T1 construct: made in house; host or cells: chemical synthesis (synthetic peptide)
T1 sequence (P15941 with tags, fused parts or gaps R1131P): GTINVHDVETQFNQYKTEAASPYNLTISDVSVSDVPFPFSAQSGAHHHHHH
Test: Colloid color-change ligand binding assay with or without enzyme inhibitor
Type: biochemical
Settings: T47D lysate treated with inhibitor, final concentration 3 mM
Description: To test the hypothesis that the MGFR portion of the MUC1 receptor is enzymatically modified prior to binding to its ligand(s), the drug screening assay described in Example 5a was performed in the presence or absence of an enzyme inhibitor, PMSF (phenylmethylsulfonyl fluoride; Sigma chemical Co. St. Louis Mo., USA). T47D cells, which are breast tumor cells that aberrantly express MUC1, were grown to 70% confluency, treated with trypsin to detach from the flask, and pelleted by centrifugation. A lysate was prepared as follows from the pellets of two T75 flasks. Cell pellets were resuspended in 300 μL phosphate buffer (10 mM sodium phosphate, 100 mM NaCl, pH 7.4). The lysate was divided into two parts. One aliquot of lysate was used as is. To the second aliquot was added 9 μL of a 100 mM stock solution to achieve a final concentration 3 mM. The lysates were frozen and thawed four times with 15 seconds of vigorous mixing after each thawing. Lysates were then pelleted by centrifugation and the supernatant collected. Lysates were diluted by adding 6.2 ml of phosphate buffer. The drug screening assay was then performed as described in Example 5a, with the exception that no drugs were added. Rather the ability of the ligand(s) in the lysate to bind to the MGFR in a multimeric way, which would result in the solution color to change to blue, was tested. […]

SMILES: O=S(=O)(F)Cc1ccccc1 [PMSF, phenylmethylsulfonyl fluoride]
- Solution color change (ligand binding to His-PSMGFR colloids): did not change color and remained pink
